{"source": "patent US5349127A", "about": "“Expression of herbicide metabolizing cytochromes P450” (priority 1992, dated 1994)", "key": {"S. griseus PH4001": {"tested_on": "S. griseus PH4001", "test": "Metabolism of 10001 by untransformed strain (Example 14)", "format": "in vitro ADME, Streptomyces griseus", "conditions": "substrate 10001 120 ug/ml"}, "S. griseolus PH3809": {"tested_on": "S. griseolus PH3809", "test": "Metabolism of 10001 by strains transformed with pCS325 (Example 15)", "format": "in vitro ADME, Streptomyces griseolus", "conditions": "substrate 10001", "experimental": "(§1) S. griseolus PH2003, S. griseus PH4001, S. ambofaciens PH4002, and S. lividans JI1326 were transformed with the plasmid pPAT108. The transformed S. griseolus strain, PH3826, was cultured for 24 hours in 150 mls of sporulation broth with 5 ug/ml thiostrepton. The transformed S. griseus strain, PH3832, and the transformed S. ambofaciens strain, PH3834, were cultured for 24 hours in 150 mls of trypticase soy broth with 5 ug/ml thiostrepton. The transformed S. lividans strain, PH3822, was similarly cultured in 150 mls of YEME broth with 5 ug/ml thiostrepton. Three hours before harvesting the cells, 50 mls of fresh medium of the same type with 5 ug/ml thiostrepton was added to each culture. The cells from each of the cultures were harvested by centrifugation, washed twice with 50 mMMOPS, pH7.2 and resuspended in five cell volumes of MOPS containing 0.2% glucose and 120 ug/ml of the sulfonylurea 10001. The cell suspensions were incubated at 30° C. with shaking and aliquots were removed at 0.5, 1, 2 and 4 hours. The supernatant of each aliquot was analyzed by HPLC and the concentration of the sulfonylurea compound 10001 and its metabolites 10002 and 10003 were determined.\n(§2) S. griseolus PH2003, S. griseus PH4001, S. ambofaciens PH4002, and S. lividans JI1326 were transformed with the plasmid pCS325. Cells of the transformed strains of S. griseolus PH3809, S. griseus PH3817, S. ambofaciens PH3818, and S. lividans PH3816, were grown and treated as described in Example 14, and the concentrations of the sulfonylurea compound 10001 and its metabolites 10002 and 10003 were determined."}, "S. ambofaciens PH3818": {"tested_on": "S. ambofaciens PH3818", "test": "Metabolism of 10001 by strains transformed with pCS325 (Example 15)", "format": "in vitro ADME, Streptomyces ambofaciens", "conditions": "substrate 10001", "experimental": "as §1, §2"}, "[1]": {"tested_on": "Tomato seedlings (Lycopersicon esculentum cv. Pixie)", "test": "Tomato transplants in herbicide-treated soil after bacterial pretreatments (Example 18)", "format": "in vivo", "conditions": "for Shoot Fresh Weight (mean of five plants): 22 days", "experimental": "One liter cultures of S. griseolus ATCC 11796, S. lividans pCAO200, S. lividans pCAO200-#9-SU1-FeS-B or S. lividans pCAO200-#12-SU1 were grown in YEME medium (sporulation broth for the S. griseolus culture) at 30° C. until the cultures were in late log phase of growth and the absorbance of each culture in a spectrophotometer at a wavelength of 600 nm was between 1.0 and 1.3. Tomato seedlings (Lycopersicon esculentum cv. \"Pixie\") were seeded directly into soiless media, Oasis Wedges® (Smithers-Oasis, Kent, Ohio), fertilized with 500 ppm Peter's® fertilizer (20:19:18); and 300 ppm of iron was added weekly. As the tomato plants develop, roots ramify through the Oasis Wedges®. The tomato plants were transplanted to pots when they were 4 inches tall as follows.\nFive inch standard round pots (without holes) were filled with Sassafras sandy loam (ph 6.7, 0.8% OM) and a single Oasis cube and then treated preemergence with either Classic® (10001) 25 DF (16, 32, 64, 125 and 250 grams active ingredient/hectare [g ai/ha]) or Oust® (10010) 75 DF at rates of 4, 8, 16, 32 and 64 g ai/ha), both herbicides available from E. I. du Pont de Nemours and Company, Wilmington, Del. The oasis cube was then removed and replaced by a transplant tomato dipped in either the cultures described above of S. griseolus ATCC 11796 (treatment A), S. lividans pCAO200 (treatment B), S. lividans pCAO200-#9-SU1-FeS-B (treatment C), S. lividans pCAO200-#12-SU1 (treatment D) or into water (treatment E). Five transplants were tested for each treatment at each dosage rate. The pots were placed on a greenhouse bench for 22 days and watered twice daily, after which shoot fresh weights of treatments were determined. Roots of these treatments and controls were examined too. Plants, soil and pots treated with bacterial cultures were double bagged and disposed by incineration."}}}
{"smiles": "CCOC(=O)c1ccccc1S(=O)(=O)NC(=O)Nc1nc(Cl)cc(OC)n1", "note": "[compound 10001, N-[(4-chloro-6-methoxy-pyrimidin-2-yl)aminocarbonyl]-2-ethoxycarbonylbenzenesulfonamide]", "values": [{"measurement": "concentration in supernatant", "setting": "S. griseus PH4001; 1.0 h", "value": 370, "unit": "µM"}, {"measurement": "concentration in supernatant", "setting": "S. griseus PH4001; 4.0 h", "value": 377, "unit": "µM"}, {"measurement": "concentration in supernatant", "setting": "S. griseolus PH3809; 0.5 h", "value": 175, "unit": "µM"}, {"measurement": "concentration in supernatant", "setting": "S. griseolus PH3809; 1.0 h", "value": 108, "unit": "µM"}, {"measurement": "concentration in supernatant", "setting": "S. griseolus PH3809; 2.0 h", "value": 0, "unit": "µM"}, {"measurement": "concentration in supernatant", "setting": "S. griseolus PH3809; 4.0 h", "value": 0, "unit": "µM"}, {"measurement": "concentration in supernatant", "setting": "S. ambofaciens PH3818; 0.5 h", "value": 286, "unit": "µM"}, {"measurement": "concentration in supernatant", "setting": "S. ambofaciens PH3818; 1.0 h", "value": 265, "unit": "µM"}, {"measurement": "concentration in supernatant", "setting": "S. ambofaciens PH3818; 2.0 h", "value": 210, "unit": "µM"}, {"measurement": "concentration in supernatant", "setting": "S. ambofaciens PH3818; 4.0 h", "value": 129, "unit": "µM"}, {"measurement": "Shoot Fresh Weight (mean of five plants)", "setting": "[1]; 16 g ai/ha, Pretreatment A (Streptomyces griseolus ATCC11796)", "value": 0.88, "unit": "grams"}, {"measurement": "Shoot Fresh Weight (mean of five plants)", "setting": "[1]; 16 g ai/ha, Pretreatment B (Streptomyces lividans pCAO200)", "value": 0.67, "unit": "grams"}, {"measurement": "Shoot Fresh Weight (mean of five plants)", "setting": "[1]; 16 g ai/ha, Pretreatment C (S. lividans pCAO200#9SU1-FeS-B)", "value": 1.63, "unit": "grams"}, {"measurement": "Shoot Fresh Weight (mean of five plants)", "setting": "[1]; 16 g ai/ha, Pretreatment D (S. lividans pCAO200#12SU1)", "value": 0.62, "unit": "grams"}, {"measurement": "Shoot Fresh Weight (mean of five plants)", "setting": "[1]; 16 g ai/ha, Pretreatment E (water)", "value": 1.67, "unit": "grams"}, {"measurement": "Shoot fresh weight in treatment C versus the other treatments", "setting": "[1]; 32, 64 and 125 g ai/ha of 10001 or 16 and 32 g ai/ha of 10010", "value": "2-3 times greater"}, {"measurement": "Shoot Fresh Weight (mean of five plants)", "setting": "[1]; 32 g ai/ha, Pretreatment A (Streptomyces griseolus ATCC11796)", "value": 0.74, "unit": "grams"}, {"measurement": "Shoot Fresh Weight (mean of five plants)", "setting": "[1]; 32 g ai/ha, Pretreatment B (Streptomyces lividans pCAO200)", "value": 0.47, "unit": "grams"}, {"measurement": "Shoot Fresh Weight (mean of five plants)", "setting": "[1]; 32 g ai/ha, Pretreatment C (S. lividans pCAO200#9SU1-FeS-B)", "value": 1.62, "unit": "grams"}, {"measurement": "Shoot Fresh Weight (mean of five plants)", "setting": "[1]; 32 g ai/ha, Pretreatment D (S. lividans pCAO200#12SU1)", "value": 0.82, "unit": "grams"}, {"measurement": "Shoot Fresh Weight (mean of five plants)", "setting": "[1]; 32 g ai/ha, Pretreatment E (water)", "value": 1.07, "unit": "grams"}, {"measurement": "Shoot Fresh Weight (mean of five plants)", "setting": "[1]; 64 g ai/ha, Pretreatment A (Streptomyces griseolus ATCC11796)", "value": 0.21, "unit": "grams"}, {"measurement": "Shoot Fresh Weight (mean of five plants)", "setting": "[1]; 64 g ai/ha, Pretreatment B (Streptomyces lividans pCAO200)", "value": 0.53, "unit": "grams"}, {"measurement": "Shoot Fresh Weight (mean of five plants)", "setting": "[1]; 64 g ai/ha, Pretreatment C (S. lividans pCAO200#9SU1-FeS-B)", "value": 1.24, "unit": "grams"}, {"measurement": "Shoot Fresh Weight (mean of five plants)", "setting": "[1]; 64 g ai/ha, Pretreatment D (S. lividans pCAO200#12SU1)", "value": 0.47, "unit": "grams"}, {"measurement": "Shoot Fresh Weight (mean of five plants)", "setting": "[1]; 64 g ai/ha, Pretreatment E (water)", "value": 0.46, "unit": "grams"}, {"measurement": "Shoot Fresh Weight (mean of five plants)", "setting": "[1]; 125 g ai/ha, Pretreatment A (Streptomyces griseolus ATCC11796)", "value": 0.49, "unit": "grams"}, {"measurement": "Shoot Fresh Weight (mean of five plants)", "setting": "[1]; 125 g ai/ha, Pretreatment B (Streptomyces lividans pCAO200)", "value": 0.38, "unit": "grams"}, {"measurement": "Shoot Fresh Weight (mean of five plants)", "setting": "[1]; 125 g ai/ha, Pretreatment C (S. lividans pCAO200#9SU1-FeS-B)", "value": 1.01, "unit": "grams"}, {"measurement": "Shoot Fresh Weight (mean of five plants)", "setting": "[1]; 125 g ai/ha, Pretreatment D (S. lividans pCAO200#12SU1)", "value": 0.35, "unit": "grams"}, {"measurement": "Shoot Fresh Weight (mean of five plants)", "setting": "[1]; 125 g ai/ha, Pretreatment E (water)", "value": 0.23, "unit": "grams"}, {"measurement": "Shoot Fresh Weight (mean of five plants)", "setting": "[1]; 250 g ai/ha, Pretreatment A (Streptomyces griseolus ATCC11796)", "value": 0.44, "unit": "grams"}, {"measurement": "Shoot Fresh Weight (mean of five plants)", "setting": "[1]; 250 g ai/ha, Pretreatment B (Streptomyces lividans pCAO200)", "value": 0.25, "unit": "grams"}, {"measurement": "Shoot Fresh Weight (mean of five plants)", "setting": "[1]; 250 g ai/ha, Pretreatment C (S. lividans pCAO200#9SU1-FeS-B)", "value": 0.55, "unit": "grams"}, {"measurement": "Shoot Fresh Weight (mean of five plants)", "setting": "[1]; 250 g ai/ha, Pretreatment D (S. lividans pCAO200#12SU1)", "value": 0.26, "unit": "grams"}, {"measurement": "Shoot Fresh Weight (mean of five plants)", "setting": "[1]; 250 g ai/ha, Pretreatment E (water)", "value": 0.21, "unit": "grams"}]}
